Reference: ChEMBL document CHEMBL6134854, “Development of Hydrazide-Based HDAC6 Selective Inhibitors for Treating NLRP3 Inflammasome-Related Diseases” (J Med Chem, 2025)

Assays:
[1] = molecular target: T1, Polyamine deacetylase HDAC10 (Homo sapiens, UniProt Q969S8); test: Inhibition of recombinant HDAC10 (unknown origin) using Ac-Gly-Ala-Lys(AMC) as substrate preincubated for 1 hrs followed by substrate addition and measured after 2 hrs by fluorescence based microplate reader analysis
T1 sequence (Q969S8 whole entry): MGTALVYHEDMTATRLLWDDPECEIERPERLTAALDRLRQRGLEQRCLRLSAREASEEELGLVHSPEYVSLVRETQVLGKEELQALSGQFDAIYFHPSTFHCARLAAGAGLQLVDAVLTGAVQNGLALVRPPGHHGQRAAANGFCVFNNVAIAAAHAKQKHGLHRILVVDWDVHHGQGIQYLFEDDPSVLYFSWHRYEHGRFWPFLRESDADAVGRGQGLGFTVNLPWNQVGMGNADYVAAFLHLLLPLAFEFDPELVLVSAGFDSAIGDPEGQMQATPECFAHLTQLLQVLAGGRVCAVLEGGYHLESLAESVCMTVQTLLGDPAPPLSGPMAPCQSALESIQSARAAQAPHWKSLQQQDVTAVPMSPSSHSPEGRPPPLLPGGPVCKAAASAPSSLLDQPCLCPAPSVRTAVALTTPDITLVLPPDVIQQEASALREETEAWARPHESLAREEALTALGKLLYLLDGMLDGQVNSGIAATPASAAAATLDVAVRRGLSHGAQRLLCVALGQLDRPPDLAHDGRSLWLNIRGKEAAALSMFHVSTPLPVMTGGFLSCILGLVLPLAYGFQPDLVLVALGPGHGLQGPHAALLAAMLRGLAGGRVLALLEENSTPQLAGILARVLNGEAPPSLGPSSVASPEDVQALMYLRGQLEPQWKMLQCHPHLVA

L02 [2] = test: Cytotoxicity against HL7702 cells assessed as effect on cell viability at 10 uM incubated for 48 hrs by resazurin reagent based assay; assay type: toxicity; conditions: human, l02, 48 h
J774.A1 = test: cells; conditions: Mus musculus, J774.A1, 48 h
in vivo [3] = conditions: male, ICR, mouse, iv, 5 mg/kg
in vivo [4] = conditions: male, ICR, mouse, iv, 5 mg/kg; remark: listed apart in the source
Histone deacetylase 1 = Histone deacetylase 1 (Homo sapiens, UniProt Q13547); test: Inhibition of recombinant HDAC1 (unknown origin) using Boc-Lys (acetyl)-AMC as substrate preincubated for 1 hrs followed by substrate addition and measured after 2 hrs by fluorescence based microplate reader analysis
Histone deacetylase 1, sequence (Q13547 whole entry): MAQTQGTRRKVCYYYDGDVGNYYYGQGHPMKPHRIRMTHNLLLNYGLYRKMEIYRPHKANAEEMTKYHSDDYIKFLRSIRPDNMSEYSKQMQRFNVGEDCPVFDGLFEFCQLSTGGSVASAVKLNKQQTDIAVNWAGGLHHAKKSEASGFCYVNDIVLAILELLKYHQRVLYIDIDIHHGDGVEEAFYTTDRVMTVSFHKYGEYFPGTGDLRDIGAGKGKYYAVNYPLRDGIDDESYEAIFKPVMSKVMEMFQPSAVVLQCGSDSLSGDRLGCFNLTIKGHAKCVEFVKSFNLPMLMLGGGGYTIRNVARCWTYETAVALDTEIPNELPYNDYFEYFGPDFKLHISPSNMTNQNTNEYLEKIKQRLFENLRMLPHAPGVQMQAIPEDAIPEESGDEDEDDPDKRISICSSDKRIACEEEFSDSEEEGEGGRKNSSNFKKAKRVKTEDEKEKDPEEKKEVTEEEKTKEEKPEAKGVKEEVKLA

Histone deacetylase 2 = Histone deacetylase 2 (Homo sapiens, UniProt Q92769); test: Inhibition of recombinant HDAC2 (unknown origin) using Boc-Lys (acetyl)-AMC as substrate preincubated for 1 hrs followed by substrate addition and measured after 2 hrs by fluorescence based microplate reader analysis
Histone deacetylase 2, sequence (Q92769 whole entry): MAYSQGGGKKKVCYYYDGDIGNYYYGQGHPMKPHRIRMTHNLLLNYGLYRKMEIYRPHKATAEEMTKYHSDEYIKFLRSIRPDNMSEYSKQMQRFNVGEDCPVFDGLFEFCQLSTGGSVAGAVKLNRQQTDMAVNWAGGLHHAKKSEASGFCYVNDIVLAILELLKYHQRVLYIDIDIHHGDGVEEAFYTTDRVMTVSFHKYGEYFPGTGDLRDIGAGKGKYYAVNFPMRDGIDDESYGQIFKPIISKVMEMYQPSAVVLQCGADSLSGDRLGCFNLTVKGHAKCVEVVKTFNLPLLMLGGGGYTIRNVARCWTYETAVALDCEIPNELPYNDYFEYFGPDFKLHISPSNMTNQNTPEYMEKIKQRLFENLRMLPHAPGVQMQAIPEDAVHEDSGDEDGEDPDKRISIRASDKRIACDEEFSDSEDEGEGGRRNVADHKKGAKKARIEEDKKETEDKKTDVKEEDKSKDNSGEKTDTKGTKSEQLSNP

Histone deacetylase 3 = Histone deacetylase 3 (Homo sapiens, UniProt O15379); test: Inhibition of recombinant HDAC3 (unknown origin) using Boc-Lys (acetyl)-AMC as substrate preincubated for 1 hrs followed by substrate addition and measured after 2 hrs by fluorescence based microplate reader analysis
Histone deacetylase 3, sequence (O15379 whole entry): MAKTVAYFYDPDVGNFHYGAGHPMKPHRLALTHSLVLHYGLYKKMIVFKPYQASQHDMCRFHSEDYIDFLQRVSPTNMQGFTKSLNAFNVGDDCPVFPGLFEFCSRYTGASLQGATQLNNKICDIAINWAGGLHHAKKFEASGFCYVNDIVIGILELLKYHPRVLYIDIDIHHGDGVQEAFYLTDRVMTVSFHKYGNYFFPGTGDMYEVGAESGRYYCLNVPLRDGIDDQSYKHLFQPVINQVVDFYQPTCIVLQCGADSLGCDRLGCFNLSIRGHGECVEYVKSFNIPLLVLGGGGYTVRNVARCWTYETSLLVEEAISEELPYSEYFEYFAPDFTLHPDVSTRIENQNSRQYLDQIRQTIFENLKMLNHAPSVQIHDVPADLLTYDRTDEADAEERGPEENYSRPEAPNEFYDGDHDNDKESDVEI

Histone deacetylase 4 = Histone deacetylase 4 (Homo sapiens, UniProt P56524); test: Inhibition of recombinant HDAC4 (unknown origin) using Boc-Lys (trifluoroacetyl)AMC as substrate preincubated for 1 hrs followed by substrate addition and measured after 2 hrs by fluorescence based microplate reader analysis
Histone deacetylase 4, sequence (P56524 whole entry): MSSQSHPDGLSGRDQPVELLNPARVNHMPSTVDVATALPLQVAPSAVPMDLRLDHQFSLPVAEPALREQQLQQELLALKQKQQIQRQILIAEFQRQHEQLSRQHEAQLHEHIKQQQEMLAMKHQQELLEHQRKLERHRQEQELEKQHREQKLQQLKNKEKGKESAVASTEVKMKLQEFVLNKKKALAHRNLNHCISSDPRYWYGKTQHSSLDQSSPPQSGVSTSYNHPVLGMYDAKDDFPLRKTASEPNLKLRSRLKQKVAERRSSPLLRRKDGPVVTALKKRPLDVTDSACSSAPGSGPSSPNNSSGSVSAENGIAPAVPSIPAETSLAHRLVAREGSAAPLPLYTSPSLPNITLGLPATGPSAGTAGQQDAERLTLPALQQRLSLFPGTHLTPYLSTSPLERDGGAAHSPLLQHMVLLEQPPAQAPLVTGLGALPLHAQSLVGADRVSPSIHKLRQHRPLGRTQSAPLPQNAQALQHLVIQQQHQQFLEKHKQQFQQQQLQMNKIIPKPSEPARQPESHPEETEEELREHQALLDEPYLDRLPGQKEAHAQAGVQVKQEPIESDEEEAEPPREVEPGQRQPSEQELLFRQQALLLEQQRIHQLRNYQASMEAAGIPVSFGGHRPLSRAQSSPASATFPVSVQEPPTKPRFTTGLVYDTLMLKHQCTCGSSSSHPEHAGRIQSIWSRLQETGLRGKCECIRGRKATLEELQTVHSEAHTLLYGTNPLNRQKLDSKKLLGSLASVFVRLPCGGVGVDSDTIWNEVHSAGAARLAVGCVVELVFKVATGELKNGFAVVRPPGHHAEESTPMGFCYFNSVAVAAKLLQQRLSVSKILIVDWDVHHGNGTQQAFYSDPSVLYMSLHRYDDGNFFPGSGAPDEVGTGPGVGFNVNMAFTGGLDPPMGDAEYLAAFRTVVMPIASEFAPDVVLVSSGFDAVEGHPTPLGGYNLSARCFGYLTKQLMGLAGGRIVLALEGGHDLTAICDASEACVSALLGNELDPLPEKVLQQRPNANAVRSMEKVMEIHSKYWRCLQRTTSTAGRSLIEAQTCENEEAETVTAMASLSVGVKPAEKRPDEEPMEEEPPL

Histone deacetylase 5 = Histone deacetylase 5 (Homo sapiens, UniProt Q9UQL6); test: Inhibition of recombinant HDAC5 (unknown origin) using Boc-Lys (trifluoroacetyl)AMC as substrate preincubated for 1 hrs followed by substrate addition and measured after 2 hrs by fluorescence based microplate reader analysis
Histone deacetylase 5, sequence (Q9UQL6 whole entry): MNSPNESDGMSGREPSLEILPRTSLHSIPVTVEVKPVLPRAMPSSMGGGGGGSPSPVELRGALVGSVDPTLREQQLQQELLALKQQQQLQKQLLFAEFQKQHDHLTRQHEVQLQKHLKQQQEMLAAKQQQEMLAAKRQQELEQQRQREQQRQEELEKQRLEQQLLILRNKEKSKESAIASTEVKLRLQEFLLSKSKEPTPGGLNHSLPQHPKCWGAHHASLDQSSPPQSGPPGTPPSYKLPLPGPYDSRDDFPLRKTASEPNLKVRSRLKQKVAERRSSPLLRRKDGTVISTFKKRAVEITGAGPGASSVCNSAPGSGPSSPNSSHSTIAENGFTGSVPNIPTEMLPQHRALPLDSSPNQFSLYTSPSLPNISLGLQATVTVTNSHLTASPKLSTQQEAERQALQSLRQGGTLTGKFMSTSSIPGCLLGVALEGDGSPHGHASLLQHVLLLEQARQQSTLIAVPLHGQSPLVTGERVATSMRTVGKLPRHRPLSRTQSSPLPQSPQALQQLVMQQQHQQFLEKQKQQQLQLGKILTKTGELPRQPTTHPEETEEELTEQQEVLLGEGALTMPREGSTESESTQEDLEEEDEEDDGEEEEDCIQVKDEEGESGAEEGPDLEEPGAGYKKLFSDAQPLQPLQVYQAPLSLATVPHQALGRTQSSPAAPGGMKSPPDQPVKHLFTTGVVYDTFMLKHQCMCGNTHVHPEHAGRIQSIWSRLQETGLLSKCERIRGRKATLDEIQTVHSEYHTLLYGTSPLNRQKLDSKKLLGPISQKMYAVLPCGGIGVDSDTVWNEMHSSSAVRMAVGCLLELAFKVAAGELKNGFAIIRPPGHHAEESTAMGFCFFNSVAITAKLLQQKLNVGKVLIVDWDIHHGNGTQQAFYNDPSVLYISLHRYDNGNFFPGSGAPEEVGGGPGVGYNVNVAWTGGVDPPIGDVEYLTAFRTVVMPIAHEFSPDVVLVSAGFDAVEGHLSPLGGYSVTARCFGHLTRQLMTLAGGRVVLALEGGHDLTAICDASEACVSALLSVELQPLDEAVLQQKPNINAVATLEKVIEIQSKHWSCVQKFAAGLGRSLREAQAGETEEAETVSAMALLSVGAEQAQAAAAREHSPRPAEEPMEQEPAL

Histone deacetylase 7 = molecular target: T2, Histone deacetylase 7 (Homo sapiens, UniProt Q8WUI4); test: Inhibition of recombinant HDAC7 (unknown origin) using Boc-Lys (trifluoroacetyl)AMC as substrate preincubated for 1 hrs followed by substrate addition and measured after 2 hrs by fluorescence based microplate reader analysis
T2 sequence (Q8WUI4 whole entry): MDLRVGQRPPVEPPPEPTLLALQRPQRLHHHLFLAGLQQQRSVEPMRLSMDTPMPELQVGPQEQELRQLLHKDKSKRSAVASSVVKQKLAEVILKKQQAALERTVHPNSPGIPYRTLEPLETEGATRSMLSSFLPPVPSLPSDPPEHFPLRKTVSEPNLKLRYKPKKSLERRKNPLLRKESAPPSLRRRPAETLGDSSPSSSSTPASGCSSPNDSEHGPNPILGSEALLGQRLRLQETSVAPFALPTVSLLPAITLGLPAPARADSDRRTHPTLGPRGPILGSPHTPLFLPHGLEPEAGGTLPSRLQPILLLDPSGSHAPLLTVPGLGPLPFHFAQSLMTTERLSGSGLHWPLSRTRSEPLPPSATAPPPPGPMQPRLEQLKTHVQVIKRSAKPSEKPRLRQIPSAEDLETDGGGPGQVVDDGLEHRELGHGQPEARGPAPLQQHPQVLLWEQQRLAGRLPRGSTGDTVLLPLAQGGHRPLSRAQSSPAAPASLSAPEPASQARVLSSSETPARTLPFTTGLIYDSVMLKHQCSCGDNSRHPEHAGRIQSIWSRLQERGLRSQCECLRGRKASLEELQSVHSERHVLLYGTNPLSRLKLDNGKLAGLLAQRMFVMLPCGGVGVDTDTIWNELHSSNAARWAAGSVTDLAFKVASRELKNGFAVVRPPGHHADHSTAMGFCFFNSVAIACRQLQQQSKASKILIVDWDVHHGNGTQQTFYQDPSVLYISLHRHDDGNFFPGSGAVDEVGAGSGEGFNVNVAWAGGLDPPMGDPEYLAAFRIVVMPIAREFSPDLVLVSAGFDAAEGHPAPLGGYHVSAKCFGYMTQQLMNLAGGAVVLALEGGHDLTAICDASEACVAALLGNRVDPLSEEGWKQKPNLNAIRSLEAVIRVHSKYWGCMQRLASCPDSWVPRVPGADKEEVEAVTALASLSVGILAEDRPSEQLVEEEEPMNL

Histone deacetylase 8 = molecular target: T3, Histone deacetylase 8 (Homo sapiens, UniProt Q9BY41); test: Inhibition of recombinant HDAC8 (unknown origin) using Boc-Lys (trifluoroacetyl)AMC as substrate preincubated for 1 hrs followed by substrate addition and measured after 2 hrs by fluorescence based microplate reader analysis
T3 sequence (Q9BY41 whole entry): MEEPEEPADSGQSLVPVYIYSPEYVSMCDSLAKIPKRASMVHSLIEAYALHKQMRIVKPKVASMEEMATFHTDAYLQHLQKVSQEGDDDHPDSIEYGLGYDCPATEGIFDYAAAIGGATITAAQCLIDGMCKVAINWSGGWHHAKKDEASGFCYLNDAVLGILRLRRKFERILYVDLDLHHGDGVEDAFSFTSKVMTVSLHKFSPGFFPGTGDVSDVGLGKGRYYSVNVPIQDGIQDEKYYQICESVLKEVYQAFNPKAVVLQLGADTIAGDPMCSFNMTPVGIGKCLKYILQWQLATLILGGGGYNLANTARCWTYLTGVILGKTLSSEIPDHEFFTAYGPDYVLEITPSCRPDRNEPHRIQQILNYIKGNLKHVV

Histone deacetylase 9 = Histone deacetylase 9 (Homo sapiens, UniProt Q9UKV0); test: Inhibition of recombinant HDAC9 (unknown origin) using Boc-Lys (trifluoroacetyl)AMC as substrate preincubated for 1 hrs followed by substrate addition and measured after 2 hrs by fluorescence based microplate reader analysis
Histone deacetylase 9, sequence (Q9UKV0 whole entry): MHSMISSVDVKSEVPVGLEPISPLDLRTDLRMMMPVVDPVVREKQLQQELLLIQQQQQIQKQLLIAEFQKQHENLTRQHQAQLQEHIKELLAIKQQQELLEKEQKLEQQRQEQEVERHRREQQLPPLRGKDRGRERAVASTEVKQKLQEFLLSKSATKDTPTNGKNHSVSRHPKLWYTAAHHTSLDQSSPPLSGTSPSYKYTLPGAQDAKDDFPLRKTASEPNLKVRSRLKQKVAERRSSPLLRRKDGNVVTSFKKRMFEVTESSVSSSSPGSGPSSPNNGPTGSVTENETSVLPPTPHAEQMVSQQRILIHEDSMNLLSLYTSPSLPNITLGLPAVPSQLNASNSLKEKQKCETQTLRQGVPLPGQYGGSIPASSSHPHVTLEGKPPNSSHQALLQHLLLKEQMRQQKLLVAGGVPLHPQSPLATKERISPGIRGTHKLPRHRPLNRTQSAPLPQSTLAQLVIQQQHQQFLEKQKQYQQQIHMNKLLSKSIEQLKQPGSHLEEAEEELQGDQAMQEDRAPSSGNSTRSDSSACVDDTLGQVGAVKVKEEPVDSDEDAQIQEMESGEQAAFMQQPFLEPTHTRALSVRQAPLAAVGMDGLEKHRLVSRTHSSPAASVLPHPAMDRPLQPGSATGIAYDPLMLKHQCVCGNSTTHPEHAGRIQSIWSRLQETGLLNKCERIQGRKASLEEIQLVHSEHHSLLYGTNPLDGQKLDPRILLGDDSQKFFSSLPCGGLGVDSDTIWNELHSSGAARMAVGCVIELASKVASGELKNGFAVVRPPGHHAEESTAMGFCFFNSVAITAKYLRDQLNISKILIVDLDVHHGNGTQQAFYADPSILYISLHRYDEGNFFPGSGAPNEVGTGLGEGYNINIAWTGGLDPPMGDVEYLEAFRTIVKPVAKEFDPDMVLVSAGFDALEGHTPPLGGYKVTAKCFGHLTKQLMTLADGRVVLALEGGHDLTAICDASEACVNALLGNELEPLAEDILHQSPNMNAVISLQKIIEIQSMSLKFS

Histone deacetylase 11 = molecular target: T4, Histone deacetylase 11 (Homo sapiens, UniProt Q96DB2); test: Inhibition of recombinant HDAC11 (unknown origin) using ETDKacyl-Kmyr as substrate preincubated for 1 hrs followed by substrate addition and measured after 2 hrs by fluorescence based microplate reader analysis
T4 sequence (Q96DB2 whole entry): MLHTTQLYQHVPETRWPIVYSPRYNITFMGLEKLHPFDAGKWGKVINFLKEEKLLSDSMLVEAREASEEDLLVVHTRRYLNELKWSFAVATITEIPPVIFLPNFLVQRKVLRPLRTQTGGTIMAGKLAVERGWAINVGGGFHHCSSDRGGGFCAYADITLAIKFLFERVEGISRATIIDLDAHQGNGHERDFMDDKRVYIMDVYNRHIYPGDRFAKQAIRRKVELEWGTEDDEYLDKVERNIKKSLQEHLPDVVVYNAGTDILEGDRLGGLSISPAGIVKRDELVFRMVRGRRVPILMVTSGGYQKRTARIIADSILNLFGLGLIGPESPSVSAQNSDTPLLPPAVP

L02 [5] = test: Cytotoxicity against HL7702 cells assessed as effect on cell viability incubated for 48 hrs by resazurin reagent based assay; assay type: toxicity; conditions: human, l02, 48 h

Row | SMILES | IC50 (Histone deacetylase 1) | IC50 (Histone deacetylase 2) | IC50 (Histone deacetylase 3) | also measured
1 | CCNNC(=O)c1ccc(CN2c3ccccc3C=Cc3ccncc32)cc1 |  |  |  | IC50 [1]: > 10 µM; Activity (L02 [2]): Toxic; IC50 (J774.A1): 25.6 µM; clearance at 24 h (in vivo [3]): 30.6 mL/min/kg; Vd at 24 h (in vivo [4]): 3.51 L/kg
2 | CCNNC(=O)c1cc(F)c(CN2c3ccccc3C=Cc3ccncc32)c(F)c1 | > 10 µM | > 10 µM | > 10 µM | 
3 | CCNNC(=O)c1cc(F)c(CN2c3ccccc3Sc3cccnc32)cc1F | > 10 µM | > 10 µM | > 10 µM | 
4 | CCNNC(=O)c1cc(F)c(CN2c3ccccc3C=Cc3ccncc32)cc1F | > 10 µM | > 10 µM | 7.04 µM | IC50 (Histone deacetylase 4): > 10 µM; IC50 (Histone deacetylase 5): > 10 µM; IC50 (Histone deacetylase 7): > 10 µM; IC50 (Histone deacetylase 8): > 10 µM; IC50 (Histone deacetylase 9): > 10 µM; IC50 [1]: > 10 µM; IC50 (Histone deacetylase 11): > 10 µM
5 | CCNNC(=O)c1ccc(CN2c3ccccc3C=Cc3ccncc32)c(F)c1 | 8.74 µM | > 10 µM | 3.75 µM | IC50 (Histone deacetylase 4): > 10 µM; IC50 (Histone deacetylase 5): > 10 µM; IC50 (Histone deacetylase 7): > 10 µM; IC50 (Histone deacetylase 8): > 10 µM; IC50 (Histone deacetylase 9): 2.27 µM; IC50 [1]: > 10 µM; IC50 (Histone deacetylase 11): > 10 µM
6 | O=C(NNCCF)c1ccc(CN2c3ccccc3C=Cc3ccncc32)cc1 | > 10 µM | > 10 µM | 6.37 µM | 
7 | CCNNC(=O)c1cc(F)c(Cn2c3ccccc3c3ccccc32)cc1F | > 10 µM | > 10 µM | > 10 µM | 
8 | CCNNC(=O)c1cc(F)c(CN2c3ccccc3C=Cc3ccccc32)cc1F | > 10 µM | > 10 µM | > 10 µM | 
9 | CCNNC(=O)c1cc(F)c(Cn2c3ccccc3c3cccnc32)cc1F | > 10 µM | > 10 µM | > 10 µM | 
10 | CCNNC(=O)c1cc(F)c(CNc2cccc3cccnc23)cc1F | > 10 µM | > 10 µM | > 10 µM | 
11 | CCNNC(=O)c1ccc(CN2c3ccccc3C=Cc3ccncc32)cc1F | > 10 µM | > 10 µM | 1.79 µM | 
12 | O=C(CCCCCCNC(=O)c1cnc(N(c2ccccc2)c2ccccc2)nc1)NO [RICOLINOSTAT] |  |  |  | Activity (L02 [5]): Toxic
